Measurements: patent US20200015498A1, “ANIMAL FEED WITH BETA ADRENERGIC AGONIST AND ISOQUINOLINE ALKALOID” (priority 2017, published 2020)

Assays:
Format in all cases: in vivo
pigs [1] = assay: Fifth experiment: test four repeated with 1700 pigs of a different farm
Description: (§1) In most countries of the world, the quality of the carcass (without innards and blood) is determined as of muscle area, fat mm at back, total analysis of fat content etc. for determining the price of the carcass per kg warm or cold carcass weight (depending on country). For this purpose, the animals are scanned in the slaughtering line by means of sensors or image-giving techniques, and the proportion of muscles and the thickness of the backbone are measured and converted into an equation which then calculates the proportion of lean meat in the entire carcass. In the EU, the carcasses can be assigned to different meat quality groups according to the following classification scheme: • S=Highest quality=>60.85% lean-meat • E=Premium Quality=58.75% lean-meat • U=High Quality=>55.9% lean-meat • R=Medium Quality=>53.9% lean-meat • O=Low Quality=>51.1% lean-meat • P=very low Quality=<51.1% lean-meat
(§2) The following animal feed compositions were administered: • AFC1: Corn, maize, soybean meal, vitamine, enzyme and mineral mixture comprising: 17% protein 0.8% lysine • AFC2: Corn, maize, Corn, maize, soybean meal, vitamine, enzyme and mineral mixture comprising: 17% protein, 0.8% lysine and 1 mg isoquinoline alkaloid/kg feed (mainly sanguinarine) • AFC3: Corn, maize, soybean meal, vitamine, enzyme and mineral mixture comprising: 19% protein, 1% lysine and a beta adrenergic agonist (ractopamin as “Paylean®” in recommended dosage (®=reg. trademark of Eli Lilly and Co.) • AFC4: Corn, maize, soybean meal, vitamine, enzyme and mineral mixture comprising: 17% protein, 0.9% lysine, 1 mg isoquinoline alkaloid (mainly sanguinarine)/kg feed and a beta adrenergic agonist (ractopamin as “Paylean®” Paylean in recommended dosage)
Test four was repeated with 1700 pigs of a different farm divided into four groups 1-4, each group comprising 425 pigs. The pigs were held in units of 25 animals. Different groups of pigs were fed with feeds of different compositions as described for the fourth experiment. The following table illustrates meat quality indicators.

pigs [2] = assay: Fourth experiment: 1500 pigs in four groups fed AFC1-AFC4, distribution in meat quality classes
Description: as §1
As a rule, during the last 4-week before slaughter day when beta adrenergic agonists are typically administered, an animal feed is administered which not only has a higher protein content but also a higher proportion of muscle-binding amino acids (e.g., lysine). For example, a manufacturer of a beta adrenergic agonist prescribes that the content of the limiting amino acid lysine and threonine in the feed must be about 30% higher than under “standard” conditions when the beta adrenergic agonist is administered. It is, however, known that only 30% of the amino acids added to the feed are resorbed and metabolized, the rest being lost.
The test was performed with 1500 pigs divided into four groups 1-4, each group comprising 375 pigs. The pigs were held in 100 units of 15 animals per unit. Different groups of pigs were fed with feeds of different compositions. The following table illustrates meat quality indicators.
as §2

pigs [3] = assay: Third experiment: meat quality classes of 120 pigs per group fed for the last four weeks until slaughter day
Description: The following table illustrates meat quality indicators obtained for 120 pigs fed for the last four weeks until slaughter day added with a beta adrenergic agonist at recommended dosages of 7.5 mg/kg feed and having a protein enriched feed formulation comparing to 120 other pigs fed during the same time period with the same feed which in addition the beta adrenergic agonist is also added with isoquinoline alkaloids like sanguinarin.
as §1

pigs [4] = assay: Sixth experiment: test four repeated with 1310 pigs of a further animal farm
Description: as §1, §2
Test four was repeated with 1310 pigs of a further animal farm divided into four groups 1-4, each group comprising 330 pigs. The pigs were held in 11 units of 30 animals. Different groups of pigs were fed with feeds of different compositions as described for the fourth experiment. The following table illustrates meat quality indicators.

pigs [5] = assay: Second experiment: 4 groups of 50 pigs fed different food and additive combinations for 4 weeks until slaughter day
Source text: In the second experimental test, 4 groups of 50 pigs were fed with different food and additive combinations for 4 weeks until slaughter day as presented in the table below. The Isoquinoline alkaloids in the feed of groups 2 and 3 mainly consisted of sanguinarine.

[6] = class O >51.1% lean-meat, feeds AFC2, AFC3, AFC4, control 4
[7] = class P <51.1% lean-meat, feeds AFC2, AFC3, AFC4, control 0
[8] = class E >58.75 % lean-meat, 120 pigs per group
[9] = class O >51.10 % lean-meat, 120 pigs per group
[10] = class P <51.10 % lean-meat, 120 pigs per group
[11] = class R >53.90 % lean-meat, 120 pigs per group
[12] = class U >55.90 % lean-meat, 120 pigs per group

CC(CCc1ccc(O)cc1)NCC(O)c1ccc(O)cc1 (stereo not drawn) [ractopamine]
Distribution of slaughtered pigs in meat quality class E (pigs [1]; class E >58.75% lean-meat, feeds AFC2, AFC3, AFC4, control 30): 35%
Distribution of slaughtered pigs in meat quality class O (pigs [1]; [6]): 2%
Distribution of slaughtered pigs in meat quality class P (pigs [1]; [7]): 0%
Distribution of slaughtered pigs in meat quality class R (pigs [1]; class R >53.9% lean-meat, feeds AFC2, AFC3, AFC4, control 15): 8%
Distribution of slaughtered pigs in meat quality class S (pigs [1]; class S >60.85% lean-meat, Group 2 feed AFC2, Group 3 AFC3, Group 4 AFC4, 425 pigs per group, control 26): 40%
Distribution of slaughtered pigs in meat quality class U (pigs [1]; class U >55.9% lean-meat, feeds AFC2, AFC3, AFC4, control 25): 15%
% of all pigs (carcasses classified as S and E quality) (pigs [1]; fifth experiment, control 56%): 75%
Distribution of slaughtered pigs in meat quality class E (pigs [2]; class E >58.75% lean-meat, feeds AFC2, AFC3, AFC4, control 35): 39%
Distribution of slaughtered pigs in meat quality class O (pigs [2]; [6]): 1%
Distribution of slaughtered pigs in meat quality class P (pigs [2]; class P <51.1% lean-meat, feeds AFC2, AFC3, AFC4, control 1): 0%
Distribution of slaughtered pigs in meat quality class R (pigs [2]; class R >53.9% lean-meat, feeds AFC2, AFC3, AFC4, control 10): 2%
Distribution of slaughtered pigs in meat quality class S (pigs [2]; class S >60.85% lean-meat, Group 2 feed AFC2, Group 3 AFC3, Group 4 AFC4, 375 pigs per group, control 35): 38%
Distribution of slaughtered pigs in meat quality class U (pigs [2]; class U >55.9% lean-meat, feeds AFC2, AFC3, AFC4, control 15): 20%
% of all pigs distributed in classes S and E (pigs [2]; fourth experiment, control 70%): 77%
% of all pigs in meat quality class E (pigs [3]; [8]): 41%
Number of pigs in meat quality class E (pigs [3]; [8]): 49
% of all pigs in meat quality class O (pigs [3]; [9]): 1%
Number of pigs in meat quality class O (pigs [3]; [9]): 1
% of all pigs in meat quality class P (pigs [3]; [10]): 0%
Number of pigs in meat quality class P (pigs [3]; [10]): 0
% of all pigs in meat quality class R (pigs [3]; [11]): 6%
Number of pigs in meat quality class R (pigs [3]; [11]): 7
% of all pigs in meat quality class S (pigs [3]; class S >60.85 % lean-meat, 120 pigs per group): 33%
Number of pigs in meat quality class S (pigs [3]; class S >60.85 % lean-meat, 120 pigs per group, ractopamin 7.5 mg/kg feed, protein enriched feed): 40
% of all pigs in meat quality class U (pigs [3]; [12]): 19%
Number of pigs in meat quality class U (pigs [3]; [12]): 23
numbers of S and E carcass classes as highest value carcasses (pigs [3]; third experiment, sum of classes S and E): 74%
Distribution of slaughtered pigs in meat quality class E (pigs [4]; class E >58.75% lean-meat, feeds AFC2, AFC3, AFC4, control 33): 38%
Distribution of slaughtered pigs in meat quality class O (pigs [4]; [6]): 1%
Distribution of slaughtered pigs in meat quality class P (pigs [4]; [7]): 0%
Distribution of slaughtered pigs in meat quality class R (pigs [4]; class R >53.9% lean-meat, feeds AFC2, AFC3, AFC4, control 11): 3%
Distribution of slaughtered pigs in meat quality class S (pigs [4]; class S >60.85% lean-meat, Group 2 feed AFC2, Group 3 AFC3, Group 4 AFC4, 330 pigs per group, control 30): 40%
Distribution of slaughtered pigs in meat quality class U (pigs [4]; class U >55.9% lean-meat, feeds AFC2, AFC3, AFC4, control 22): 18%
% of all pigs (carcasses classified as S and E quality) (pigs [4]; sixth experiment, control 63%): 78%
Feed conversion ratio (pigs [5]; 4 weeks until slaughter, isoquinoline alkaloids 1 mg/kg feed and/or ractopamin 7.5 mg/kg feed, control 2.78): 2.62
Daily weight gain (pigs [5]; 4 weeks until slaughter, isoquinoline alkaloids 1 mg/kg feed and/or ractopamin 7.5 mg/kg feed, control 753): 852 g
live mass at slaughter day (pigs [5]; after 4 weeks, isoquinoline alkaloids 1 mg/kg feed and/or ractopamin 7.5 mg/kg feed, soybean 15% (group 2), 17% (group 3), 20% (group 4), control 118): 125.5 kg
Fraction lean meat (pigs [5]; at slaughter, isoquinoline alkaloids 1 mg/kg feed and/or ractopamin 7.5 mg/kg feed, control 54.95): 58.5%
performance (daily weight gain, feed utilization, lean meat content) compared with the control group, in words (pigs [5]; second experiment, groups 2-4 versus group 1): significantly improves performance and increases the lean meat content and the feed utilization
